The target of one test is T1, human HIF-PHD3 (Homo sapiens, UniProt Q9H6Z9).
T1 construct: purchased CrystalGenomics Ltd
The test can be described thus: HIF-PHD inhibition assay (fluorescence polarization), human HIF-PHD3. The conditions noted are these: 2-oxoglutaric acid 166 μmol/L. It counts as biochemical. The protocol: (§1) The activity of the test compound to inhibit human HIF-PHD2 and human HIF-PHD3 was determined.
(§2) The value of enzyme activity was calculated by subtracting the value of fluorescence polarization before addition of the enzyme from the value of fluorescence polarization after addition of enzyme (mP value).
(§3) FAM: 5′-fluoresceinamide ACA: aminocaproic acid
On the technique in general: Polarisation of emitted light reports the rotation of a fluorescent probe.

The target in another test is T2, human HIF-PHD2 (Homo sapiens, UniProt Q9GZT9).
T2 construct: purchased CrystalGenomics Ltd
The test can be described thus: HIF-PHD inhibition assay (fluorescence polarization), human HIF-PHD2. Type of test: biochemical. The conditions noted are these: 2-oxoglutaric acid 3.33 μmol/L. The procedure: as §1, §2, §3

Drawing on US20150239889A1, “PYRAZOLOPYRIMIDINE COMPOUND” (MITSUBISHI TANABE PHARMA CORPORATION, priority 2012, published 2015), this text covers IC50 for 49 compounds.

T1 sequence (Q9H6Z9 whole entry): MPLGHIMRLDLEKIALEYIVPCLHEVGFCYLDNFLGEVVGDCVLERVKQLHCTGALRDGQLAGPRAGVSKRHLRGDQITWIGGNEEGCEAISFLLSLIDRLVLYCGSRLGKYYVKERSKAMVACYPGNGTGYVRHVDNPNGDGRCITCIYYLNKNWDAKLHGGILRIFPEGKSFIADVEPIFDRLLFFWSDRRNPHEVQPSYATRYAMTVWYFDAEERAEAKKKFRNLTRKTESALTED
T2 sequence (Q9GZT9 2-426 limits assumed): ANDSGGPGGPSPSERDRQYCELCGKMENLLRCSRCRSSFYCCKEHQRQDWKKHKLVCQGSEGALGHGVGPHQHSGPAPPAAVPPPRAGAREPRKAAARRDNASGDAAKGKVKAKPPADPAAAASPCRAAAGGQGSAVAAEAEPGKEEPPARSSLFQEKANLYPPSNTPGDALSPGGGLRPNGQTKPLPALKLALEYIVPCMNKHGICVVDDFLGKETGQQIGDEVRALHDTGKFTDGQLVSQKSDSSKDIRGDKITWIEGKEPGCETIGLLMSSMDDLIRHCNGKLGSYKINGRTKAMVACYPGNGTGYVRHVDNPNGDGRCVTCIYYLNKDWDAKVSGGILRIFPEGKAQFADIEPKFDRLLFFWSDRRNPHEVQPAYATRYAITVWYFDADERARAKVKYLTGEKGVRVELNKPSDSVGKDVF

Broadly, the IC50 is the concentration that gives 50% inhibition. High values mean weaker potency in that assay, low ones greater potency in that assay. `CC(c1cc(Cl)ccc1Cl)n1ncc2nc(-n3cc(C(=O)O)cn3)nc(O)c21` (racemic) [Example 264] came in with an IC50 against human HIF-PHD3 of 490 nM. In other words, the sub-micromolar range.

`CC(c1ccc(N2CCC(C(F)(F)F)CC2)cc1)n1ncc2nc(-n3cc(C(=O)O)cn3)nc(O)c21` (racemic) [Example 423]: the IC50 against human HIF-PHD2 amounted to 31 nM; against human HIF-PHD3, 740 nM.

Consider `CC(c1ccc(N2CCC(F)CC2)cc1)n1ncc2nc(-n3cc(C(=O)O)cn3)nc(O)c21` (racemic) [Example 424], for which the IC50 against human HIF-PHD2 stood at 44 nM; on human HIF-PHD3 it was 480 nM.

With `CC1CCN(c2ccc(C(C)n3ncc4nc(-n5cc(C(=O)O)cn5)nc(O)c43)cc2)CC1` (racemic) [Example 425], the IC50 is 48 nM at human HIF-PHD2 and 390 nM at human HIF-PHD3.

Regarding `Cc1ccc(C(C)n2ncc3nc(-n4cc(C(=O)O)cn4)nc(O)c32)cc1` (single isomer, unassigned) [Example 292], the values for the IC50 against human HIF-PHD2 and on human HIF-PHD3 were 39 nM and 590 nM, respectively.

On to `Cc1cc(C(C)n2ncc3nc(-n4cc(C(=O)O)cn4)nc(O)c32)ccc1Cl` (single isomer, unassigned) [Example 294], for which the IC50 on human HIF-PHD2 stood at 22 nM; against human HIF-PHD3, 470 nM.

With `Cc1ccc(C(C)n2ncc3nc(-n4cc(C(=O)O)cn4)nc(O)c32)cc1F` (single isomer, unassigned) [Example 296], the IC50 was 55 nM on human HIF-PHD2 and 480 nM on human HIF-PHD3.

As to `Cc1ccc(C(C)n2ncc3nc(-n4cc(C(=O)O)cn4)nc(O)c32)cc1Cl` (single isomer, unassigned) [Example 298], the IC50 amounted to 29 nM at human HIF-PHD2 and 300 nM against human HIF-PHD3.

As to `Cc1cc(F)cc(C(C)n2ncc3nc(-n4cc(C(=O)O)cn4)nc(O)c32)c1` (single isomer, unassigned) [Example 300], the results for the IC50 against human HIF-PHD2 and against human HIF-PHD3 were 59 nM and 490 nM, respectively.

As to `Cc1cc(C(C)n2ncc3nc(-n4cc(C(=O)O)cn4)nc(O)c32)ccc1F` (single isomer, unassigned) [Example 302], the figures for the IC50 on human HIF-PHD2 and on human HIF-PHD3 were 50 nM and 570 nM, respectively.

On to `CC(c1ccc(F)c(C(F)(F)F)c1)n1ncc2nc(-n3cc(C(=O)O)cn3)nc(O)c21` (single isomer, unassigned) [Example 304], for which the IC50 on human HIF-PHD2 came to 15 nM; at human HIF-PHD3, 230 nM.

Regarding `CC(c1cc(F)cc(Cl)c1)n1ncc2nc(-n3cc(C(=O)O)cn3)nc(O)c21` (single isomer, unassigned) [Example 306], the IC50 is 62 nM against human HIF-PHD2 and 450 nM on human HIF-PHD3.

`CC(c1cc(Cl)cc(Cl)c1)n1ncc2nc(-n3cc(C(=O)O)cn3)nc(O)c21` (single isomer, unassigned) [Example 308]: the results for the IC50 on human HIF-PHD2 and against human HIF-PHD3 were 54 nM and 510 nM, respectively.

As to `Cc1cc(C)cc(C(C)n2ncc3nc(-n4cc(C(=O)O)cn4)nc(O)c32)c1` (single isomer, unassigned) [Example 310], the IC50 is 57 nM against human HIF-PHD2 and 470 nM at human HIF-PHD3.

`Cc1ccc(Cl)cc1C(C)n1ncc2nc(-n3cc(C(=O)O)cn3)nc(O)c21` (single isomer, unassigned) [Example 312]: the IC50 at human HIF-PHD2 was found to be 110 nM; at human HIF-PHD3, 510 nM.

For the compound `Cc1ccc(F)c(C(C)n2ncc3nc(-n4cc(C(=O)O)cn4)nc(O)c32)c1` (single isomer, unassigned) [Example 314], the IC50 amounted to 61 nM against human HIF-PHD2 and 800 nM against human HIF-PHD3.

`CC(c1ccc(Cl)c(C(F)(F)F)c1)n1ncc2nc(-n3cc(C(=O)O)cn3)nc(O)c21` (single isomer, unassigned) [Example 316]: the IC50 against human HIF-PHD2 worked out at 29 nM; at human HIF-PHD3, 470 nM.

As for `CC(c1cc(Cl)c(Cl)s1)n1ncc2nc(-n3cc(C(=O)O)cn3)nc(O)c21` (single isomer, unassigned) [Example 320], the IC50 was 18 nM on human HIF-PHD2 and 480 nM at human HIF-PHD3.

With `CCC(c1ccc(F)cc1)n1ncc2nc(-n3cc(C(=O)O)cn3)nc(O)c21` (single isomer, unassigned) [Example 325], the figures for the concentration for half-maximal inhibition (IC50) against human HIF-PHD2 and on human HIF-PHD3 were 36 nM and 630 nM, respectively.

As for `CCC(c1ccc(C)cc1)n1ncc2nc(-n3cc(C(=O)O)cn3)nc(O)c21` (single isomer, unassigned) [Example 329], the IC50 came to 120 nM against human HIF-PHD2 and 590 nM at human HIF-PHD3.

For the compound `CCC(c1ccc(F)c(F)c1)n1ncc2nc(-n3cc(C(=O)O)cn3)nc(O)c21` (single isomer, unassigned) [Example 331], the figures for the IC50 on human HIF-PHD2 and on human HIF-PHD3 were 19 nM and 420 nM, respectively.

For the compound `CCC(c1cc(F)cc(F)c1)n1ncc2nc(-n3cc(C(=O)O)cn3)nc(O)c21` (single isomer, unassigned) [Example 333], the IC50 is 46 nM on human HIF-PHD2 and 320 nM on human HIF-PHD3.

`CCC(c1cc(C(F)(F)F)cc(C(F)(F)F)c1)n1ncc2nc(-n3cc(C(=O)O)cn3)nc(O)c21` (single isomer, unassigned) [Example 335] had an IC50 on human HIF-PHD2 of 76 nM.

Take `CCC(c1ccc(F)c(Cl)c1)n1ncc2nc(-n3cc(C(=O)O)cn3)nc(O)c21` (single isomer, unassigned) [Example 338]: the IC50 turned out to be 28 nM against human HIF-PHD2 and 420 nM at human HIF-PHD3.

With `CCC(c1cc(F)cc(Cl)c1)n1ncc2nc(-n3cc(C(=O)O)cn3)nc(O)c21` (single isomer, unassigned) [Example 340], the values for the IC50 at human HIF-PHD2 and against human HIF-PHD3 were 16 nM and 300 nM, respectively.

Consider `CCC(c1cccc(C(F)(F)F)c1)n1ncc2nc(-n3cc(C(=O)O)cn3)nc(O)c21` (single isomer, unassigned) [Example 342], for which the IC50 against human HIF-PHD2 amounted to 36 nM; on human HIF-PHD3, 480 nM.

Turning to `CCC(c1ccc(Cl)c(C)c1)n1ncc2nc(-n3cc(C(=O)O)cn3)nc(O)c21` (single isomer, unassigned) [Example 347], the values for the IC50 on human HIF-PHD2 and against human HIF-PHD3 were 38 nM and 400 nM, respectively.

`CCC(c1ccc(C)c(Cl)c1)n1ncc2nc(-n3cc(C(=O)O)cn3)nc(O)c21` (single isomer, unassigned) [Example 349]: the values for the IC50 on human HIF-PHD2 and at human HIF-PHD3 were 67 nM and 390 nM, respectively.

As for `CCC(c1ccc(Cl)cc1F)n1ncc2nc(-n3cc(C(=O)O)cn3)nc(O)c21` (single isomer, unassigned) [Example 351], the IC50 against human HIF-PHD2 is 24 nM; on human HIF-PHD3, 210 nM.

In the case of `CC(C)C(c1ccc(F)cc1)n1ncc2nc(-n3cc(C(=O)O)cn3)nc(O)c21` (single isomer, unassigned) [Example 355], the IC50 was found to be 120 nM against human HIF-PHD2 and 540 nM on human HIF-PHD3.

In the case of `CC(C)C(c1ccc(C(F)(F)F)cc1)n1ncc2nc(-n3cc(C(=O)O)cn3)nc(O)c21` (single isomer, unassigned) [Example 357], the IC50 against human HIF-PHD2 is 77 nM; at human HIF-PHD3, 390 nM.

Turning to `CC(C)C(c1ccc(F)c(F)c1)n1ncc2nc(-n3cc(C(=O)O)cn3)nc(O)c21` (single isomer, unassigned) [Example 359], the values for the IC50 on human HIF-PHD2 and at human HIF-PHD3 were 23 nM and 340 nM, respectively.

For the compound `CC(C)C(c1cc(F)cc(F)c1)n1ncc2nc(-n3cc(C(=O)O)cn3)nc(O)c21` (single isomer, unassigned) [Example 361], the IC50 against human HIF-PHD2 stood at 61 nM; against human HIF-PHD3 it was 760 nM.

Regarding `CC(C)C(c1cccc(C(F)(F)F)c1)n1ncc2nc(-n3cc(C(=O)O)cn3)nc(O)c21` (single isomer, unassigned) [Example 363], the IC50 at human HIF-PHD2 is 57 nM; against human HIF-PHD3, 1300 nM.

For `O=C(O)c1cnn(-c2nc(O)c3c(cnn3C(c3ccc(Cl)cc3)C3CC3)n2)c1` (single isomer, unassigned) [Example 365], the IC50 at human HIF-PHD2 amounted to 12 nM; on human HIF-PHD3, 460 nM.

In the case of `O=C(O)c1cnn(-c2nc(O)c3c(cnn3C(c3ccc(F)cc3)C3CC3)n2)c1` (single isomer, unassigned) [Example 367], the IC50 on human HIF-PHD2 came out at 34 nM; against human HIF-PHD3 it was 350 nM.

Consider `Cc1ccc(C(C2CC2)n2ncc3nc(-n4cc(C(=O)O)cn4)nc(O)c32)cc1` (single isomer, unassigned) [Example 369], for which the values for the concentration for half-maximal inhibition (IC50) at human HIF-PHD2 and against human HIF-PHD3 were 35 nM and 400 nM, respectively.

As for `O=C(O)c1cnn(-c2nc(O)c3c(cnn3C(c3ccc(F)c(Cl)c3)C3CC3)n2)c1` (single isomer, unassigned) [Example 371], the values for the IC50 on human HIF-PHD2 and against human HIF-PHD3 were 41 nM and 400 nM, respectively.

Consider `O=C(O)c1cnn(-c2nc(O)c3c(cnn3C(c3cc(F)cc(F)c3)C3CC3)n2)c1` (single isomer, unassigned) [Example 373], for which the IC50 against human HIF-PHD2 was found to be 36 nM; at human HIF-PHD3, 650 nM.

`O=C(O)c1cnn(-c2nc(O)c3c(cnn3CC3(c4ccccc4)CC3)n2)c1` [Example 122]: at human HIF-PHD2, the IC50 came to 74 nM.

In turn, `O=C(O)c1cnn(-c2nc(O)c3c(cnn3CC3CCNCC3)n2)c1` [Example 169] showed an IC50 against human HIF-PHD3 of 2100 nM.

For the compound `C[C@@H](c1c(F)cccc1F)n1ncc2nc(-n3cc(C(=O)O)cn3)nc(O)c21` [Example 256], the IC50 at human HIF-PHD2 was determined as 160 nM.

Consider `C[C@@H](c1cc(F)ccc1F)n1ncc2nc(-n3cc(C(=O)O)cn3)nc(O)c21` [Example 261], for which, on human HIF-PHD2, the midpoint of inhibition, the IC50, lay at 72 nM.

At human HIF-PHD3, `C[C@@H](c1cc(Cl)ccc1Cl)n1ncc2nc(-n3cc(C(=O)O)cn3)[nH]c(=O)c21` [Example 263] came in with an IC50 of 610 nM.

With `Cc1cc(Cl)cc([C@@H](C)n2ncc3nc(-n4cc(C(=O)O)cn4)nc(O)c32)c1` [Example 266], on human HIF-PHD2, the IC50 is 73 nM.

In the case of `CCC(c1ccc(C)c(Cl)c1)n1ncc2nc(-n3cc(C(=O)O)cn3)nc(O)c21` (centres unmarked) [Example 348], half-maximal inhibition against human HIF-PHD2 (IC50) required 110 nM.

`O=C(O)c1cnn(-c2nc(O)c3c(cnn3Cc3ccc(N4CCCC4=O)cc3)n2)c1` [Example 419] returned an IC50 against human HIF-PHD2 of 44 nM.

Consider `C[C@@H](c1ccc(F)cc1F)n1nc(C2CC2)c2nc(-n3cc(C(=O)O)cn3)nc(O)c21` [Example 460], for which the IC50 at human HIF-PHD2 stood at 180 nM. Compared with the last compound, the IC50 is about 4.1-fold higher.

`O=C(O)c1cnn(-c2nc(O)c3c(n2)c(Cc2ccccc2)nn3CC2CCCCC2)c1` [Example 504] showed an IC50 against human HIF-PHD2 of 160 nM.
